# Measured values reported in ChEMBL document CHEMBL1201862, “PubChem BioAssay data set” (2004).
# Calls of active or inactive are those of the source.
# How the values were obtained:
# Cytochrome P450 2C19 = Cytochrome P450 2C19 (Homo sapiens, UniProt P33261); test: Cytochrome panel assay with activity outcomes. Panel member name: p450-cyp2c19 Compounds with AC50 equal or less than 10 uM are considered active; format: functional; details: read-out: AC50
# [1] = biological target: 1-phosphatidylinositol 4,5-bisphosphate phosphodiesterase gamma-1 (Homo sapiens, UniProt P19174); test: Counterscreen for inhibitors of phospholipase C isozymes (PLC-B3): Fluorescence-based biochemical high throughput dose response assay to identify inhibitors of phospholipase C isozymes (PLC-gamma1).
# [2] = biological target: 1-phosphatidylinositol 4,5-bisphosphate phosphodiesterase beta-3 (Homo sapiens, UniProt Q01970); test: Fluorescence-based biochemical high throughput dose response assay to identify inhibitors of phospholipase C isozymes (PLC-B3).
# Cytochrome P450 2D6 = Cytochrome P450 2D6 (Homo sapiens, UniProt P10635);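 also: CYP2D6 member of a cytochrome P450 panel assay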
# Cytochrome P450 2C9 = Cytochrome P450 2C9 (Homo sapiens, UniProt P11712)
# Paired box protein Pax-8 = Paired box protein Pax-8 (Homo sapiens, UniProt Q06710); test: PAX8 transcriptional activity inhibition in RMG-I – RMG-I cells, luciferase, cherry-pick, dose response (AID 687027); format: functional, cell-based;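 also: luciferase reporter driven by Pax8 target thyroperoxidase promoter measured by SteadyGlo luminescence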
# [3] = general cell-killing toxicity readout – plate reader, dry powder samples, cytotoxicity control for PAX8 inhibitor project, dose response (AID 743021); format: functional, cell-based
# [4] = growth inhibition of yeast DHODH-expressing 3D7 parasites – SYBR Green, dry powder samples, dose response (AID 1159570); format: functional, cell-based;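 also: parasite growth measured after 72 hours of compound exposure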
# [5] = toxicity to human HepG2 hepatoma cells – cell-based, plate reader, dry powder samples, cytotoxicity control, dose response (AID 1159569); format: functional;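 also: inhibitor potency with signal falling toward the positive control level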
# [6] = P. falciparum Dd2 growth inhibitors, dose response, SYBR Green, cherry-picked samples (AID 1159567); format: functional, cell-based
# [7] = Dd2 malaria parasite growth inhibition potency – SYBR Green, dry powder samples, dose response (AID 1159566); format: functional, cell-based;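 also: potency for growth inhibition with lower SYBR green DNA signal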
# [8] = toxicity to human hepatoma HepG2 cells – cell-based, cherry-picked samples, cytotoxicity control, dose response (AID 1159577); format: functional
# [9] = growth inhibition of PfATP4-mutant resistant parasites – NITD609-resistant line, SYBR Green, dry powder, dose response (AID 1159571); format: functional, cell-based;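 also: parasites synchronized at ring stage by sorbitol before testing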
# Protein Tat = Protein Tat (Human immunodeficiency virus type 1 group M subtype B (isolate HXB2)(HIV-1), UniProt P04608); format: functional;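 also: tat binding to TAR RNA read out by fluorescence polarization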
# [10] = biological target: Glutathione-S-transferase (Schistosoma japonicum, UniProt Q26513); test: GST-antibody interaction or FRET quenching – biochemical, TR-FRET, artefact control for Vif-APOBEC3G degradation inhibitor project, dose response (AID 1117362); format: functional
# [11] = viability loss in Vero cells – cytotoxicity control for Vif-APOBEC3G degradation inhibitor project, dose response (AID 1117358); format: functional; details: Vero
# [12] = A2780 cell killing – plate reader, dry powder samples, cytotoxicity control, dose response (AID 743046); format: functional, cell-based
# [13] = OVCAR-3 cell viability loss – plate reader, dry powder samples, PAX8 inhibitor project, dose response (AID 743044); format: functional, cell-based
# [14] = OVCAR8 cell viability loss – plate reader, dry powder samples, PAX8 project, dose response (AID 743197); format: functional, cell-based; details: OVCAR-8
# [15] = biological target: T1, Oxysterols receptor LXR-beta (Homo sapiens, UniProt P55055); format: functional, cell-based;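 also: Cell-based luminescence dose-response assay of agonist activity at LXR, run as a confirmatory counterscreen to a daf-12 agonist screen; HEK293 cells with Gal4-LXR fusion and GAL4-driven luciferase reporter; agonist potency from rising luciferase signal of a Gal4-LXR reporter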
# T1 sequence (P55055 whole entry): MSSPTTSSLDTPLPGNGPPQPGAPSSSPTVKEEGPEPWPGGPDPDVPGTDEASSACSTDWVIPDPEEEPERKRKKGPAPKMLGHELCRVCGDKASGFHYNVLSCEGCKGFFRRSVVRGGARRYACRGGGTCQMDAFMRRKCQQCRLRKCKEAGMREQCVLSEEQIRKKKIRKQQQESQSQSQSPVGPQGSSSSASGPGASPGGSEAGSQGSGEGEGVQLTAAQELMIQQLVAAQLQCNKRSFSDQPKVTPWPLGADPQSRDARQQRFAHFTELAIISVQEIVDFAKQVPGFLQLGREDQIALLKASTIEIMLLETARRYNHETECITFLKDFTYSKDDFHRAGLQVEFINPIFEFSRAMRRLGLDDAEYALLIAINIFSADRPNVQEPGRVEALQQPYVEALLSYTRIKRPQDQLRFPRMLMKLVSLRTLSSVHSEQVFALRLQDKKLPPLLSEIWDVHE
# Chain of Paired box protein Pax-8 (Q06710 whole entry): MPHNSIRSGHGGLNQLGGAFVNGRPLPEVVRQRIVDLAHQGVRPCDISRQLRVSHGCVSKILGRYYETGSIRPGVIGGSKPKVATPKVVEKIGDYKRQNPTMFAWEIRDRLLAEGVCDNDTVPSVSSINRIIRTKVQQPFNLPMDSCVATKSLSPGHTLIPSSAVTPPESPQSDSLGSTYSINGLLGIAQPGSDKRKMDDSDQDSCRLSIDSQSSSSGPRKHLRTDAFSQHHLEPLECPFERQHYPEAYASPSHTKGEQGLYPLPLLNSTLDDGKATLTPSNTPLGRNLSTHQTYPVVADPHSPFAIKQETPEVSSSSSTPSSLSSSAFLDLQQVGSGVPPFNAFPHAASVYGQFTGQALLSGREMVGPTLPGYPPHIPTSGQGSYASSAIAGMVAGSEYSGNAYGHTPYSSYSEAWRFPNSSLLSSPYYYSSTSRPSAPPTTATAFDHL
# Chain of 1-phosphatidylinositol 4,5-bisphosphate phosphodiesterase beta-3 (Q01970 whole entry): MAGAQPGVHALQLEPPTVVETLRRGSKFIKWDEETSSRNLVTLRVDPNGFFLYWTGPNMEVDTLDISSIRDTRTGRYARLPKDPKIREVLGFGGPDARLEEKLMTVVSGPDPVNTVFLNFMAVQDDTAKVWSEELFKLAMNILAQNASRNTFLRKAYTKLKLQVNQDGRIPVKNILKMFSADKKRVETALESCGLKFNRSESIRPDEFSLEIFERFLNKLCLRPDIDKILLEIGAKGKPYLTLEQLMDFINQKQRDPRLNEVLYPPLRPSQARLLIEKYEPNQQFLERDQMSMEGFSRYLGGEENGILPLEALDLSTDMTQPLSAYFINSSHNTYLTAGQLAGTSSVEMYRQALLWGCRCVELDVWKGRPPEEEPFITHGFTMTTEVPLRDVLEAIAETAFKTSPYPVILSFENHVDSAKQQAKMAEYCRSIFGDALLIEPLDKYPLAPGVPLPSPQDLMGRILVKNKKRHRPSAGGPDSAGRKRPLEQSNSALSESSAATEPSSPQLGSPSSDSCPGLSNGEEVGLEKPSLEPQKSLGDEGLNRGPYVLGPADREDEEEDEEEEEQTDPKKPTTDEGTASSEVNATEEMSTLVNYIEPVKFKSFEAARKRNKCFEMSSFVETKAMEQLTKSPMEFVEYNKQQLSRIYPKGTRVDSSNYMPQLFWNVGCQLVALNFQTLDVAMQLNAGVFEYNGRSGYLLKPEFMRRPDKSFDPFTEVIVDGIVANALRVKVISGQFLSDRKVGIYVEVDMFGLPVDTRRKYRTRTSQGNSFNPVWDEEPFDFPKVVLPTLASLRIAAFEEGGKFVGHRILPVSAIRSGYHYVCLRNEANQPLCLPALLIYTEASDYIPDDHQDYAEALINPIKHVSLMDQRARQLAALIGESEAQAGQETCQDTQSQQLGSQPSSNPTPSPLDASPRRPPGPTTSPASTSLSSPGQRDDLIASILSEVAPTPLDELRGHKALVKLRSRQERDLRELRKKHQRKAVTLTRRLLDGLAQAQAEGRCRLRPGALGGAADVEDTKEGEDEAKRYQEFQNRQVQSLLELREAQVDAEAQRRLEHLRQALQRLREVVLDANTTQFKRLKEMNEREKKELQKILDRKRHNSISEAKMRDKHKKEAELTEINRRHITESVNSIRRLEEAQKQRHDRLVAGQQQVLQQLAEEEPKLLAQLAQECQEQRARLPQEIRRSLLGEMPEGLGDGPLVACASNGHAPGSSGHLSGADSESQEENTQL
# Chain of 1-phosphatidylinositol 4,5-bisphosphate phosphodiesterase gamma-1 (P19174 whole entry): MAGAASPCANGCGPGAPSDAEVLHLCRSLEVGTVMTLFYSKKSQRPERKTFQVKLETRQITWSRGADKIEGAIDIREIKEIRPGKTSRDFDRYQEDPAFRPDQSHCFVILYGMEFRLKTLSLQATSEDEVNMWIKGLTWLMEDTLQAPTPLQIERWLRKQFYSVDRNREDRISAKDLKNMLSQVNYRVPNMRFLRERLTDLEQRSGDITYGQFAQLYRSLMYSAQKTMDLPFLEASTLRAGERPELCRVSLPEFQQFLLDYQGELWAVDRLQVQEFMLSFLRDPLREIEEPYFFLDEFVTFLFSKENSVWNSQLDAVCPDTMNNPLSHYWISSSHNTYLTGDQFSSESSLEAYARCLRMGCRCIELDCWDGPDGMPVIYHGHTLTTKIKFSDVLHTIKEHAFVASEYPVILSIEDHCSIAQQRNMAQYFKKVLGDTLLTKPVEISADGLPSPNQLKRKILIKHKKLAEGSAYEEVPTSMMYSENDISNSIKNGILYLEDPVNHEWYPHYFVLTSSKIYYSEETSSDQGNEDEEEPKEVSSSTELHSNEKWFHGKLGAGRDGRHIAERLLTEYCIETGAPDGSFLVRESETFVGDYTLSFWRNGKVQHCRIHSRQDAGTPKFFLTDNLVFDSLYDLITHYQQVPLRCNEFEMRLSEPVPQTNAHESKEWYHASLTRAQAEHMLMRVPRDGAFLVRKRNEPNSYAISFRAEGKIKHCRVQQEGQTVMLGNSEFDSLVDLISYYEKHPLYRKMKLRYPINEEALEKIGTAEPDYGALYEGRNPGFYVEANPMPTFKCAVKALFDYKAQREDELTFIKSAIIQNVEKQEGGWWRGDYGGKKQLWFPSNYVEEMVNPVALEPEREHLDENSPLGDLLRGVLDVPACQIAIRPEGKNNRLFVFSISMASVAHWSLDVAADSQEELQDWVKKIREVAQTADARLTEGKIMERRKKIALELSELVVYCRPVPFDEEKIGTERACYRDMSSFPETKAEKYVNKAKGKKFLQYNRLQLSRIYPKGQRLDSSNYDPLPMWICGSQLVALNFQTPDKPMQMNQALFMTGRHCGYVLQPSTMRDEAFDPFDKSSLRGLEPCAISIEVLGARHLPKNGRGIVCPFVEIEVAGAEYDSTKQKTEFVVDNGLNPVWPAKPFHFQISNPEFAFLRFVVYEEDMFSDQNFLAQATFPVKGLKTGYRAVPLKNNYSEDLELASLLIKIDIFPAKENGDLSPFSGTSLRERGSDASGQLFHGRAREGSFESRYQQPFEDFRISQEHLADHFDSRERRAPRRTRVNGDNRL
# Chain of Cytochrome P450 2C9 (P11712 whole entry): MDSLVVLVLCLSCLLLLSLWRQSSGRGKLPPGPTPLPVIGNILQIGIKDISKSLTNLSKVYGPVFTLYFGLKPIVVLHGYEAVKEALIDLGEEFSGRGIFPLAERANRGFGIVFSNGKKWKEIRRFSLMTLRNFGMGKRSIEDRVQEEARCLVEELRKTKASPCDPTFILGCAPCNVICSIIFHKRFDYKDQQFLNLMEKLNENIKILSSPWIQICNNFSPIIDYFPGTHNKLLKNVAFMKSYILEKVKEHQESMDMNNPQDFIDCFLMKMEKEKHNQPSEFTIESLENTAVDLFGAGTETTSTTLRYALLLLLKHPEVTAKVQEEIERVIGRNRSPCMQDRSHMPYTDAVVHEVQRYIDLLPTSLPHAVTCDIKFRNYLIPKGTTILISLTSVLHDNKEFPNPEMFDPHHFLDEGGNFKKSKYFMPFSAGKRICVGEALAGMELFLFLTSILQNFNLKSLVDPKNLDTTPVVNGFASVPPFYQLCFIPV
# Chain of Cytochrome P450 2D6 (P10635 whole entry): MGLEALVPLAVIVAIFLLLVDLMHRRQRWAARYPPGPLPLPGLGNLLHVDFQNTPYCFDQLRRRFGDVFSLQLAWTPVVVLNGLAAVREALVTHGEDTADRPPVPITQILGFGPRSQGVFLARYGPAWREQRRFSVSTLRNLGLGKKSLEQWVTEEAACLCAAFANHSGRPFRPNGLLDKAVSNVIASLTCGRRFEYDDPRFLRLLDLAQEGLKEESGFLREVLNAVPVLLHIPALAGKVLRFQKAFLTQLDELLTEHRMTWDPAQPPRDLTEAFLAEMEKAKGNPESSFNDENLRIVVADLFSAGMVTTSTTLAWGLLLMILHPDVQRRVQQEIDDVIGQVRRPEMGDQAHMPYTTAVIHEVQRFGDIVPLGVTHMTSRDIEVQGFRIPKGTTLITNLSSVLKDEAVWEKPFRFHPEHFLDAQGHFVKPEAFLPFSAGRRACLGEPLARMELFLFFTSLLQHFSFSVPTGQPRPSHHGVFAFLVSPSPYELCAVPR
# Chain of Cytochrome P450 2C19 (P33261 whole entry): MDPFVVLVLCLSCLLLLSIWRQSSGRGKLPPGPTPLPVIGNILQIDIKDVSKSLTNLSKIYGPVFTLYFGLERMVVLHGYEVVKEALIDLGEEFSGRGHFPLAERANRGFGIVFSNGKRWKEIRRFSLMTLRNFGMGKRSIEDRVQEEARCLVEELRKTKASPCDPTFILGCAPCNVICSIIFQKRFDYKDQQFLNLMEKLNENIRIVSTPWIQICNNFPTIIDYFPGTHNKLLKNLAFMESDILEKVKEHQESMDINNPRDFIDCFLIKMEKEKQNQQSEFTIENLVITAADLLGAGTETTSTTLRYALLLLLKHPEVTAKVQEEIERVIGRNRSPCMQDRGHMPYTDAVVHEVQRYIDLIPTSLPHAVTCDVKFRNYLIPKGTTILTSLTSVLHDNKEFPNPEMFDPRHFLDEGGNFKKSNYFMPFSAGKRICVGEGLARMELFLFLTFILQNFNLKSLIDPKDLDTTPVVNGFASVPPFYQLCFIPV
# Chain of Glutathione-S-transferase (Q26513 whole entry): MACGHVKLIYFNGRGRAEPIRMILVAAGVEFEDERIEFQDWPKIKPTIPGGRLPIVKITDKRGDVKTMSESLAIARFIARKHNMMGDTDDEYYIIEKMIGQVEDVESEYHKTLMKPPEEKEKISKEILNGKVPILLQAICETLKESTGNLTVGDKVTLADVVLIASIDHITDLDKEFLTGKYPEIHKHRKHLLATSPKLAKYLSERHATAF
# Chain of Protein Tat (P04608 whole entry): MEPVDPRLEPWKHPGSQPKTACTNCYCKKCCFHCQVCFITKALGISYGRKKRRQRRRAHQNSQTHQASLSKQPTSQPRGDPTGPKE
smiles,measurement,setting,value
O=C(Nc1cccc2ccccc12)c1ccccc1,AC50,Cytochrome P450 2C19,2.51 µM (inconclusive)
same,IC50,[1],> 123 µM (inactive)
same,IC50,[2],> 123 µM (inactive)
same,AC50,Cytochrome P450 2D6,0.00251 µM (inconclusive)
same,AC50,Cytochrome P450 2C9,inconclusive
Nc1nc(N)c2c(ccc3c2ccn3Cc2cccc([N+](=O)[O-])c2)n1,AC50,Paired box protein Pax-8,1.5 µM (active)
same,AC50,[3],20.3 µM (active)
C[C@@H]1CN([C@@H](C)CO)C(=O)c2c(c3ccccc3n2C)-c2ccccc2CO[C@H]1CN(C)C(=O)Nc1cccc(Cl)c1Cl,AC50,[4],2.3 µM (active)
same,AC50,[5],27.4 µM (active)
same,AC50,[6],1.86 µM (active)
same,AC50,[7],1.49 µM (active)
same,AC50,[8],> 39 µM (inactive)
same,AC50,[9],2.21 µM (active)
CCCCn1cnc2cc(NCc3ccncc3)ccc21,IC50,Protein Tat,> 100 µM (active)
same,IC50,[10],> 100 µM (active)
same,CC50,[11],> 40 µM (active)
Cc1noc(/C=C/c2ccco2)c1S(=O)(=O)N1CCC(C(=O)NCc2ccco2)CC1,CC50,[11],> 40 µM (active)
Cc1noc(C)c1S(=O)(=O)N(C)C[C@H]1OCCCC[C@@H](C)Oc2ccc(NS(=O)(=O)c3ccc(Cl)cc3)cc2C(=O)N([C@@H](C)CO)C[C@@H]1C,AC50,Paired box protein Pax-8,10.5 µM (active)
same,AC50,[12],12.1 µM (active)
same,AC50,[13],46.2 µM (active)
same,AC50,[14],> 70 µM (inactive)
Cc1ccnc(NC(=O)Nc2cccc(F)c2)c1,EC50,[15],> 67.5 µM (inactive)
same,EC50,cells,> 67.5 µM (inactive)
